Test results taken from US7863476B1, “Multifunctional anionic surfactants” (Oil Chem Technologies, priority 2009, dated 2011).

Experiments:
Type in all cases: physicochemical
[1] = Brine solubilities of surfactant concentrates; details: 5.0% by weight surfactant concentrate, 30° C.; for Brine solubility, BRINE 1: Brine 1: NaCl 3.0%, CaCl2-2H2O 1.0%, MgCl2-6H2O 1.0%; for Brine solubility, BRINE 2: Brine 2: NaCl 1.0%; for Brine solubility, BRINE 3: Brine 3: NaCl 5.0%; for Brine solubility, BRINE 4: Brine 4: NaCl 10%; for Brine solubility, BRINE 5: Brine 5: NaCl 20%
Procedure: (§1) In all cases the surfactant formulation consisted of 30% by weight surfactant, 25% by weight ethylene glycol monobutyl ether (co-surfactant/solvent), and 45% by weight water. Also in all cases except where noted the surfactant formulation was added to the injection brine at a concentration of 0.10 weight percent. These examples use surfactants containing only ethylene oxide in the alcohol ether carboxylate although products containing propylene oxide and ethylene oxide give good results in certain applications.
(§2) Table II is the brine compositions that were used for the IFT testing to show the effect of total dissolved solids and divalent ion concentration on the IFT obtained using various surfactants.
Table III compares the solubilities obtained with 5.0% by weight of various surfactant concentrates in the 5 brines at 30° C.

[2] = Interfacial tension (IFT) by spinning drop interfacial tensiometer; details: 0.10 wt % surfactant, 95° C., spinning 1 hour; for IFT, BRINE 1: Brine 1: NaCl 3.0%, CaCl2-2H2O 1.0%, MgCl2-6H2O 1.0%; for IFT, BRINE 2: Brine 2: NaCl 1.0%; for IFT, BRINE 3: Brine 3: NaCl 5.0%; for IFT, BRINE 4: Brine 4: NaCl 10%; for IFT, BRINE 5: Brine 5: NaCl 20%
Procedure: as §1, §2
All IFTs were obtained using a University of Texas Model 500 spinning drop interfacial tensiometer after spinning at 95° C. for 1 hour.

[3] = Static adsorption test
Text: Table VII compares the adsorption of the composition of this invention surfactant B with a 1:1 molar mixture of surfactant D and surfactant E to show the effectiveness of having both the sulfonate and ether carboxylate on one molecule. 0.2 wt % surfactant D and 0.2 wt % surfactant E alone were also included to correct for the amount of each of these surfactants adsorbed. All tests were done using 0.20 wt % total surfactant in Brine 2. The static adsorption was run by mixing 50.0 grams of surfactant solution with 10.0 grams of 200 mesh beach sand on a wrist action shaker for 16 hours and then determining the amount of surfactant remaining compared to the original amount added.

[4] = 0.20 wt % total surfactant in Brine 2, 16 hours

Substance | Brine solubility, BRINE 1 [1] | Brine solubility, BRINE 2 [1] | Brine solubility, BRINE 3 [1] | Brine solubility, BRINE 4 [1] | Brine solubility, BRINE 5 [1] | IFT, BRINE 1 [2] [mN/m] | IFT, BRINE 2 [2] [mN/m] | IFT, BRINE 3 [2] [mN/m] | IFT, BRINE 4 [2] [mN/m] | IFT, BRINE 5 [2] [mN/m] | % adsorbed [3, 4] [%] | amount adsorbed in mg surfactant/gram sand [3, 4] [mg/g] | Amount remaining ([3]; of 0.100 g original wt, 0.20 wt % total surfactant in Brine 2, 50.0 g solution with 10.0 g sand, 16 hours) | Adsorbed ([3]; of 0.100 g original wt, 0.20 wt % total surfactant in Brine 2, 16 hours)
Sodium salt of carboxylated oleyl alcohol with 2 moles of EO. [Surfactant C] | dis- | soluble | soluble | soluble | dis- | 0.769 | 0.070 | 0.090 | 0.122 | 0.256 | – | – | – | –
Sodium salt of carboxylated oleyl alcohol with 9 moles of EO. [Surfactant D] | soluble | soluble | soluble | soluble | soluble | 0.066 | 0.031 | 0.022 | 0.020 | 0.020 | 78 | 7.8 | 0.022 | 0.078
